Laboratory results from patent US20090118331A1, “Use of Lobeline Epimers in the Treatment of Central Nervous System Diseases, Pathologies, and Drug Abuse” (priority 2007, published 2009).
“And” between values parts separate entries of the source, which are not always exact repeats. Equal entries are not always repeated.

Assays:
[1] = Pharmacokinetics of lobeline and epimer in human subjects after sublingual lobeline administration (7.5, 15, 30 mg); conditions: for AUCext (percent of AUC(0-∞) determined by extrapolation) / Tlast (time of last measurable plasma concentration) / λz (terminal exponential rate constant): lobeline in plasma; for AUCext (percent of AUC(0-∞) determined by extrapolation) / Tlast (time of last measurable plasma concentration) / λz (terminal exponential rate constant) / CL/F (extravascular clearance): individual human subjects; for CL/F (extravascular clearance): lobeline
Excerpt: The pharmacokinetics of lobeline and lobeline epimer were examined in eight human subjects (Sub) after sublingual lobeline administration.

[2] = Lobeline conversion to epimer in deionized water (HPLC); assay type: physicochemical
Experimental: Extensive in vitro studies on the epimerization of lobeline were conducted in a variety of aqueous media. […] The concentration of the lobeline solution (500 mL) was ca. 0.5 mg/mL, and 1.5 mL aliquot parts were removed in triplicate at each time point and analyzed by HPLC. Corresponding pH measurements were performed with a Coming Model 240 pH meter.

[3] = Lobeline epimerization in pH 7.4 phosphate buffer control; conditions: after 2 hours, with impurity
Experimental: In order to determine the tendency of lobeline to undergo epimerization in the HEPES buffer employed in the 25° C. [^3H]DTBZ binding study and the 37° C. VMAT2 uptake studies previously described, analogous solution epimerization experiments were conducted using the corresponding conditions for each individual assay. […] As this dynamic phenomenon occurs, the ratio of lobeline to lobeline epimer in solution naturally changes over time. Further, depending upon the solution conditions, the rate and extent of epimerization may vary; thus, a ratio of lobeline to epimer, if achieved, may occur at various time points. After 2 hours, the 25° C. […] The epimerization of lobeline in the 37° C.

[4] = Lobeline conversion to epimer in the HEPES buffer system used at 25° C. in the [^3H]DTBZ binding study (HPLC); assay type: physicochemical; conditions: for Lobeline %: [^3H]DTBZ binding buffer, 25° C.
Experimental: The initial dissolution of lobeline in water was followed by a 1:1 dilution of this stock solution in the appropriate HEPES buffer system, incubation at the prescribed temperature, and HPLC assay of each epimer and potential degradants over 2 hour incubation.
After 2 hours, the 25° C.

[5] = clinical; conditions: human, in vivo
Experimental: Three consecutive doses of lobeline (either 30, 45 and 45 mg in the first study group, or 60, 60 and 60 mg in the second group) were administered to human volunteers at 0800, 1200 and 1600 over two full inpatient days. The pharmacokinetics of lobeline and epimer were then assessed in each subject. […] A crude index of accumulation (non-steady state) was obtained by dividing the sixth dose trough concentration by that observed for the fifth dose.

[6] = sublingual lobeline 30.0 mg, listed as lobeline

SMILES: CN1[C@@H](CC(=O)c2ccccc2)CCC[C@H]1C[C@H](O)c1ccccc1 [Lobeline, 2-[6S-(2S-hydroxy-2-phenyl-ethyl)-1-methyl-piperidin-2R-yl]-1-phenyl-ethanone]
- dose linearity of Cmax and CL/F ([1]; dose range from 7.5 to 30 mg, sublingual, human): Linear kinetics
- Combined urinary excretion of lobeline and epimer ([1]; human, in vivo): ≤ 0.5%
- AUC(0-inf) ([1]; human, in vivo, 30 mg): 8.02 ng·h/mL
- half-life ([1]; human, in vivo, 30 mg, Terminal exponential phase half-life (T1/2), average): ~2.4 h
- half-life ([1]; human, in vivo, 30 mg, Terminal exponential phase half-lives (T1/2 values), range): 1 to 5 h
- Tmax ([1]; human, in vivo, 30 mg, Tmax values, range): 0.25 to 3 h
- Tmax ([1]; human, in vivo, 30 mg, Tmax, average): 1.4 h
- half-life ([1]; human, in vivo, mean T1/2 values, human subjects, sublingual lobeline): ~2 h
- equilibrium ratio of lobeline to epimer ([1]; humans): 1 to 10
- AUCext (percent of AUC(0-∞) determined by extrapolation) ([1]; sublingual lobeline 7.50 mg): 39.3% and 21.5% and 38.5% and 19.2% and 18.0% and 12.3% and 13.6% and 29.5%
- Tlast (time of last measurable plasma concentration) ([1]; sublingual lobeline 7.50 mg): 3.03 hr and 4.00 hr (3×) and 4.05 hr and 6.00 hr (2×) and 12.00 hr
- λz (terminal exponential rate constant) ([1]; sublingual lobeline 7.50 mg): 0.401 h⁻¹ and 0.403 h⁻¹ and 0.195 h⁻¹ and 0.295 h⁻¹ and 0.277 h⁻¹ and 0.183 h⁻¹ and 0.555 h⁻¹ and 0.367 h⁻¹
- AUCext (percent of AUC(0-∞) determined by extrapolation) ([1]; sublingual lobeline 15.0 mg): 16.1% and 14.1% and 6.24% and 6.52% and 14.5% and 12.7% and 18.7% and 18.1%
- Tlast (time of last measurable plasma concentration) ([1]; sublingual lobeline 15.0 mg): 4.17 hr and 4.00 hr and 6.00 hr (3×) and 8.00 hr (2×) and 11.00 hr
- λz (terminal exponential rate constant) ([1]; sublingual lobeline 15.0 mg): 0.513 h⁻¹ and 0.544 h⁻¹ and 0.573 h⁻¹ and 0.341 h⁻¹ and 0.322 h⁻¹ and 0.206 h⁻¹ and 0.185 h⁻¹ and 0.321 h⁻¹
- Tlast (time of last measurable plasma concentration) ([1]; sublingual lobeline 30.0 mg): 8.02 h
- AUCext (percent of AUC(0-∞) determined by extrapolation) [1, 6]: 7.44% and 6.59% and 5.81% and 5.16% and 20.3% and 3.50% and 8.86% and 5.87%
- Tlast (time of last measurable plasma concentration) [1, 6]: 4.00 h and 6.05 h and 12.17 h and 8.03 h and 22.75 h and 6.00 h and 8.00 h
- λz (terminal exponential rate constant) [1, 6]: 0.878 h⁻¹ and 0.469 h⁻¹ and 0.314 h⁻¹ and 0.254 h⁻¹ and 0.149 h⁻¹ and 0.151 h⁻¹ and 0.376 h⁻¹ and 0.380 h⁻¹
- CL/F (extravascular clearance) ([1]; sublingual lobeline 7.50 mg): 2328 mL/min/kg and 844 mL/min/kg and 1116 mL/min/kg and 623 mL/min/kg and 792 mL/min/kg and 179 mL/min/kg and 1502 mL/min/kg and 1051 mL/min/kg
- CL/F (extravascular clearance) ([1]; sublingual lobeline 15.0 mg): 1995 mL/min/kg and 866 mL/min/kg and 1364 mL/min/kg and 550 mL/min/kg and 1183 mL/min/kg and 188 mL/min/kg and 1194 mL/min/kg and 1068 mL/min/kg
- CL/F (extravascular clearance) ([1]; sublingual lobeline 30.0 mg): 1809 mL/min/kg and 1169 mL/min/kg and 1269 mL/min/kg and 572 mL/min/kg and 1736 mL/min/kg and 162 mL/min/kg and 2340 mL/min/kg and 857 mL/min/kg
- % Lobeline (Mean ± SD) ([2]; Solution 1 (Lobeline in “fresh” DI Water), time 0, pH 6.02): 99.16%
- % Lobeline (Mean ± SD) ([2]; Solution 1 (“fresh” DI Water), 15 min, pH 6.03-6.24): 99.17 ± 0.053%
- % Lobeline (Mean ± SD) ([2]; Solution 1 (“fresh” DI Water), 30 min, pH 6.02-6.24): 99.01 ± 0.162%
- % Lobeline (Mean ± SD) ([2]; Solution 1 (“fresh” DI Water), 45 min, pH 6.13-6.37): 99.06 ± 0.146%
- % Lobeline (Mean ± SD) ([2]; Solution 1 (“fresh” DI Water), 1 h, pH 6.26-6.52): 99.00 ± 0.195%
- % Lobeline (Mean ± SD) ([2]; Solution 1 (“fresh” DI Water), 80 min, pH 6.19-6.50): 98.54 ± 0.112%
- % Lobeline (Mean ± SD) ([2]; Solution 1 (“fresh” DI Water), 100 min, pH 6.16-6.50): 98.50 ± 0.139%
- % Lobeline (Mean ± SD) ([2]; Solution 1 (“fresh” DI Water), 2 h, pH 5.63-5.88): 98.42 ± 0.601%
- % Lobeline (Mean ± SD) ([2]; Solution 2 (Lobeline in “8-h” DI Water), time 0, pH 7.87): 98.97%
- % Lobeline (Mean ± SD) ([2]; Solution 2 (“8-h” DI Water), 15 min, pH 7.78-8.21): 99.34 ± 0.274%
- % Lobeline (Mean ± SD) ([2]; Solution 2 (“8-h” DI Water), 30 min, pH 7.58-7.85): 99.49 ± 0.215%
- % Lobeline (Mean ± SD) ([2]; Solution 2 (“8-h” DI Water), 45 min, pH 7.66-7.68): 99.35 ± 0.056%
- % Lobeline (Mean ± SD) ([2]; Solution 2 (“8-h” DI Water), 1 h, pH 6.84-7.11): 99.20 ± 0.085%
- % Lobeline (Mean ± SD) ([2]; Solution 2 (“8-h” DI Water), 80 min, pH 6.53-6.79): 99.11 ± 0.150%
- % Lobeline (Mean ± SD) ([2]; Solution 2 (“8-h” DI Water), 100 min, pH 6.24-6.51): 98.99 ± 0.206%
- % Lobeline (Mean ± SD) ([2]; Solution 2 (“8-h” DI Water), 2 h, pH 6.21-6.49): 98.78 ± 0.258%
- conversion of lobeline to lobeline epimer ([2]; fresh deionized water or water allowed to absorb atmospheric carbon dioxide for up to 8 hours, 2 hour time course): ca. 1%
- component content of solution ([3]; pH 7.4 phosphate buffer control, same temperature as 25° C. binding buffer): 64%
- component content of solution ([3]; phosphate buffer control for the 37° C. VMAT2 uptake buffer): 62%
- final component concentration (as a function of the area under the curve) ([4]; HEPES [^3H]DTBZ binding buffer, after 2 hours at 25° C.): 83%
- Lobeline % ([4]; T0, sample age 0:01): 98.5%
- Lobeline % ([4]; T5, sample age 0:06): 97.8%
- Lobeline % ([4]; T10, sample age 0:10): 96.7%
- Lobeline % ([4]; T15, sample age 0:15): 95.5%
- Lobeline % ([4]; T20, sample age 0:20): 94.7%
- Lobeline % ([4]; T25, sample age 0:25): 94.1%
- Lobeline % ([4]; T30, sample age 0:31): 92.8%
- Lobeline % ([4]; T35, sample age 0:35): 92.7%
- Lobeline % ([4]; T40, sample age 0:40): 91.3%
- Lobeline % ([4]; T45, sample age 0:45): 90.7%
- Lobeline % ([4]; T50, sample age 0:50): 90.1%
- Lobeline % ([4]; T55, sample age 0:55): 89.9%
- Lobeline % ([4]; T60, sample age 1:00): 89.1%
- Lobeline % ([4]; T70, sample age 1:10): 87.8%
- Lobeline % ([4]; T80, sample age 1:20): 86.6%
- Lobeline % ([4]; T90, sample age 1:31): 85.5%
- Lobeline % ([4]; T100, sample age 1:40): 84.5%
- Lobeline % ([4]; T110, sample age 1:50): 83.5%
- Lobeline % ([4]; T120, sample age 2:01): 82.7%
- half-life [5]: 3.91 h
- time at which geometric mean plasma concentration peaked [5]: 1.26 h
